Assay results: patent publication US20030022151A1, “Functional screening” (priority 2001, published 2003)

How the values were obtained:
[1] = target: T1, PS1-Sh ble polypeptide (UniProt P17493+P49768); assay: Level of PS1-Sh ble polypeptide after inhibitor treatment; format: cell-based; settings: FIG. 13 legend
T1 construct: Sh ble protein (Ble, bleomycin/zeocin resistance protein of Streptoalloteichus hindustanus, 124 aa); expressed in transfected cells

[2] = target: PS2 (Homo sapiens, UniProt P49810); settings: previously reported (Shearman et al., 2000); cited from earlier work
[3] = target: PS1 (Homo sapiens, UniProt P49768); settings: previously reported (Shearman et al., 2000); cited from earlier work
[4] = test system: Stable N2a cells expressing PS1 chimeric proteins; assay: Zeocin toxicity / cell viability assay (WST-1) in stable N2a cells expressing PS1 chimera; format: cell-based, mouse
Description: (§1) Cultured stable N2a cells expressing chimeric PS1 polypeptides were tested for cell viability in the presence of increasing concentrations of zeocin and in the presence and absence of known presenilin inhibitors in multi-well formats (FIG. 11). […] In these assays, cell viability can be assayed by commercially available cell viability ELISA kits.
(§2) Stable N2a cells expressing PS1 chimeric proteins or the parental N2a cell line were plated at a density of 6.25×10^3 cells/well into 96-well tissue culture dishes in a volume of 90 µl/well. Serial dilutions of Zeocin were added (2 mg/ml to 0.0625 mg/ml final concentration) in a volume of 10 µl/well. In some experiments the γ-secretase inhibitor, […] (purchased from Bachem) was added at a final concentration of 1 μM to one set of wells. The cells were incubated from 2 to 3 days at 37° C. Then 10 μl of Cell Proliferation Reagent WST-1 (Roche Biochemical) was added to each well. The plate was shaken for 30 sec. then placed back in the 37° C. incubator. The plate was read at 450 nm after 30 min., 1 h, 2 h and 3h in a Benchmark Plus Absorbance Plate Reader (BioRad).

[5] = test system: parental N2a cell line; settings: parental cells; lowest zeocin concentration tested (0.2 mg/ml); FIG. 12
Description: as §1, §2

[6] = test system: parental PS1ΔBle cells; settings: parental PS1ΔBle cells expressing very low levels of PS1ΔBle
Description: For the screen, a cell line that expresses very low levels of the PS1ΔBle protein is chosen so that the chimera is largely present as cleaved PS1 NTF and PS1ΔBleCTF. Thus, transgene-derived expression of a putative protein that facilitates increased accumulation of PS1ΔBle confers increased bleomycin (Zeocin) resistance to the target cell. […] After allowing infection/transgene expression for 2-3 days, the infected population of cells are subject to antibiotic selection in 1-2 mg/ml zeocin (5-10 times greater than the concentration normally used for selecting stable clones). At this higher concentration, only cells that accumulate several fold higher levels of PS1ΔBle relative to parental PS1ΔBle cells (that are resistant to 0.2 mg/ml), form colonies. […] If overexpression of a particular cDNA caused increased accumulation of PS1ΔBle, and therefore, an increased resistance to zeocin, in a clone, the cDNA rescued from the clone will confer increased resistance to the parental PS1ΔBle cells during the rescreening.

Structure (SMILES)	levels of the PS1-Sh ble polypeptide [1]	binding to PS2 [2]	binding to PS1 [3]	zeocin concentrations at which inhibitor-treated cells are viable ([4]; cells expressing PS1 chimera treated with inhibitor (1 μM), FIG. 13) [mg/mL]	resistance to zeocin conferred by the PS1 chimera ([4]; inhibitor at final concentration of 1 μM plus zeocin, FIG. 13)	cell viability in presence of zeocin [5]	zeocin concentration to which cells are resistant [6] [mg/mL]	zeocin concentrations at which cells are viable ([4]; cells expressing PS1 chimera, 2 to 3 days at 37° C., WST-1 read at 450 nm, FIG. 12) [mg/mL]
CC(C)C[C@H](NC(=O)[C@H](Cc1ccccc1)C[C@@H](O)[C@H](Cc1ccccc1)NC(=O)OC(C)(C)C)C(=O)N[C@@H](Cc1ccccc1)C(N)=O [L-685,458]	reduces the levels	bind	bind	0 to 2	reduced the resistance to zeocin			
Cc1c(N)nc([C@H](CC(N)=O)NC[C@H](N)C(N)=O)nc1C(=O)N[C@H](C(=O)N[C@H](C)[C@@H](O)[C@H](C)C(=O)N[C@H](C(=O)NCCC1=N[C@@H](c2nc(C(=O)NCCCCN=C(N)N)cs2)CS1)[C@@H](C)O)[C@@H](O[C@@H]1O[C@@H](CO)[C@@H](O)[C@H](O)[C@@H]1O[C@H]1O[C@H](CO)[C@@H](O)[C@H](OC(N)=O)[C@@H]1O)c1cnc[nH]1 [zeocin]						significantly less viable	0.2	0 to 4
